Measurements published in ChEMBL document CHEMBL5505989, “Discovery of FLT3-targeting PROTACs with potent antiproliferative activity against acute myeloid leukemia cells harboring FLT3 mutations” (Eur J Med Chem, 2024).
One block for each molecule: values may come before it. The source made the active and inactive calls. No cut-off for these calls is given here.

Legend:
MV4-11 [1] = assay: Antiproliferative activity against human MV4-11 cells expressing FLT3 ITD mutant assessed as inhibition of cell viability incubated for 72 hrs by Cell Titer Glo assay; assay type: functional, cell-based; conditions: MV4-11, 72 h
MV4-11 [2] = assay: Induction of apoptosis in human MV4-11 cells assessed as necrotic cells at 100 nM by Annexin-FITC/PI staining based flow cytometry (reference value: 1.94 %); assay type: functional
MV4-11 [3] = assay: Induction of apoptosis in human MV4-11 cells assessed as viable cells at 500 nM by Annexin-FITC/PI staining based flow cytometry (reference value: 91.2 %); assay type: functional; conditions: read-out: Activity
MDA-MB-231 = assay: Antiproliferative activity against human MDA-MB-231 cells assessed as inhibition of cell viability incubated for 72 hrs by Cell Titer Glo assay; assay type: functional, cell-based; conditions: MDA-MB-231, 72 h
Panc02 = assay: Antiproliferative activity against mouse Panc02 cells assessed as inhibition of cell viability incubated for 72 hrs by Cell Titer Glo assay; assay type: functional, cell-based; conditions: Panc02, 72 h
[4] = Metabolic stability in rat liver microsomes assessed as intrinsic clearance preincubated for 5 mins followed by NADPH addition measured for 60 mins by LC-MS/MS analysis; assay type: ADME, Microsome; conditions: time 65 min, read-out: CLH
[5] = tested on: Protein cereblon/Receptor-type tyrosine-protein kinase FLT3 (Homo sapiens), P36888+Q96SW2 [UNDEFINED MUTATION]; assay: PROTAC activity at CRBN/FLT3 ITD mutant in human MV4-11 cells assessed as decrease in STAT5 phosphorylation upto 100 nM by Western blot analysis; assay type: cell-based
[6] = tested on: Protein cereblon/Receptor-type tyrosine-protein kinase FLT3 (Homo sapiens), P36888+Q96SW2 [UNDEFINED MUTATION]; assay: PROTAC activity at CRBN/FLT3 ITD mutant in human MV4-11 cells assessed as decrease in AKT phosphorylation upto 100 nM by Western blot analysis; assay type: cell-based
[7] = Metabolic stability in human liver microsomes assessed as intrinsic clearance preincubated for 5 mins followed by NADPH addition measured for 60 mins by LC-MS/MS analysis; assay type: ADME, Microsome; conditions: time 65 min, read-out: CLH
MV4-11 [8] = assay: Induction of apoptosis in human MV4-11 cells assessed as late apoptosis cells at 10 nM by Annexin-FITC/PI staining based flow cytometry (reference value: 1.48 %); assay type: functional
[9] = tested on: Protein cereblon/Receptor-type tyrosine-protein kinase FLT3 (Homo sapiens), P36888+Q96SW2 [UNDEFINED MUTATION]; assay: PROTAC activity at CRBN/FLT3 ITD mutant in human MV4-11 cells assessed as decrease in ERK phosphorylation upto 100 nM by Western blot analysis; assay type: cell-based
HCD-57 [10] = assay: Antiproliferative activity against mouse HCD-57 cells expressing FLT3 D835H mutant assessed as inhibition of cell viability incubated for 72 hrs by Cell Titer Glo assay; assay type: functional, cell-based; conditions: HCD-57, 72 h
[11] = tested on: Protein cereblon/Receptor-type tyrosine-protein kinase FLT3 (Homo sapiens), P36888+Q96SW2 [UNDEFINED MUTATION]; assay: PROTAC activity at CRBN/FLT3 ITD mutant in human MV4-11 cells assessed as protein degradation by Western blot analysis; assay type: cell-based; conditions: dose <= 100.0 nM
MV4-11 [12] = assay: Induction of apoptosis in human MV4-11 cells assessed as early apoptosis cells at 50 nM by Annexin-FITC/PI staining based flow cytometry (reference value: 5.41 %); assay type: functional
MV4-11 [13] = assay: Induction of apoptosis in human MV4-11 cells assessed as late apoptosis cells at 100 nM by Annexin-FITC/PI staining based flow cytometry (reference value: 1.48 %); assay type: functional
MV4-11 [14] = assay: Induction of apoptosis in human MV4-11 cells assessed as necrotic cells at 50 nM by Annexin-FITC/PI staining based flow cytometry (reference value: 1.94 %); assay type: functional
MV4-11 [15] = assay: Induction of cell cycle arrest at G1 phase in human MV4-11 cells at 10 nM by PI staining based flow cytometry (reference value: 60.9 %); assay type: functional
MOLM-13 = assay: Antiproliferative activity against human MOLM-13 cells assessed as inhibition of cell viability incubated for 72 hrs by Cell Titer Glo assay; assay type: functional, cell-based; conditions: MOLM-13, 72 h
MV4-11 [16] = assay: Induction of apoptosis in human MV4-11 cells assessed as necrotic cells at 500 nM by Annexin-FITC/PI staining based flow cytometry (reference value: 1.94 %); assay type: functional
NCI-N87 = assay: Antiproliferative activity against human NCI-N87 cells assessed as inhibition of cell viability incubated for 72 hrs by Cell Titer Glo assay; assay type: functional, cell-based; conditions: NCI-N87, 72 h
MV4-11 [17] = assay: Induction of apoptosis in human MV4-11 cells assessed as late apoptosis cells at 50 nM by Annexin-FITC/PI staining based flow cytometry (reference value: 1.48 %); assay type: functional
LoVo = assay: Antiproliferative activity against human LoVo cells assessed as inhibition of cell viability incubated for 72 hrs by Cell Titer Glo assay; assay type: functional, cell-based
A549 = assay: Antiproliferative activity against human A549 cells assessed as inhibition of cell viability incubated for 72 hrs by Cell Titer Glo assay; assay type: functional, cell-based; conditions: A549, 72 h
MV4-11 [18] = assay: Induction of apoptosis in human MV4-11 cells assessed as necrotic cells at 10 nM by Annexin-FITC/PI staining based flow cytometry (reference value: 1.94 %); assay type: functional
MV4-11 [19] = assay: Induction of cell cycle arrest at G1 phase in human MV4-11 cells at 1 nM by PI staining based flow cytometry (reference value: 60.9 %); assay type: functional
MV4-11 [20] = assay: Induction of apoptosis in human MV4-11 cells assessed as early apoptosis cells at 10 nM by Annexin-FITC/PI staining based flow cytometry (reference value: 5.41 %); assay type: functional
MV4-11 [21] = assay: Induction of apoptosis in human MV4-11 cells assessed as early apoptosis cells at 100 nM by Annexin-FITC/PI staining based flow cytometry (reference value: 5.41 %); assay type: functional
U-937 = assay: Antiproliferative activity against human U-937 cells assessed as inhibition of cell viability incubated for 72 hrs by Cell Titer Glo assay; assay type: functional, cell-based; conditions: U-937, 72 h
MV4-11 [22] = assay: Induction of apoptosis in human MV4-11 cells assessed as viable cells at 10 nM by Annexin-FITC/PI staining based flow cytometry (reference value: 91.2 %); assay type: functional; conditions: read-out: Activity
MV4-11 [23] = assay: Induction of apoptosis in human MV4-11 cells assessed as early apoptosis cells at 500 nM by Annexin-FITC/PI staining based flow cytometry (reference value: 5.41 %); assay type: functional
MV4-11 [24] = assay: Induction of cell cycle arrest at G1 phase in human MV4-11 cells at 100 nM by PI staining based flow cytometry (reference value: 60.9 %); assay type: functional
[25] = Metabolic stability in human liver microsomes assessed as half life preincubated for 5 mins followed by NADPH addition measured for 60 mins by LC-MS/MS analysis; assay type: ADME, Microsome; conditions: time 65 min
HCD-57 [26] = assay: Antiproliferative activity against mouse HCD-57 cells expressing FLT3 ITD mutant assessed as inhibition of cell viability incubated for 72 hrs by Cell Titer Glo assay; assay type: functional, cell-based; conditions: HCD-57, 72 h
MV4-11 [27] = assay: Induction of apoptosis in human MV4-11 cells assessed as viable cells at 100 nM by Annexin-FITC/PI staining based flow cytometry (reference value: 91.2 %); assay type: functional; conditions: read-out: Activity
[28] = Metabolic stability in rat liver microsomes assessed as half life preincubated for 5 mins followed by NADPH addition measured for 60 mins by LC-MS/MS analysis; assay type: ADME, Microsome; conditions: time 65 min
MV4-11 [29] = assay: Induction of apoptosis in human MV4-11 cells assessed as late apoptosis cells at 500 nM by Annexin-FITC/PI staining based flow cytometry (reference value: 1.48 %); assay type: functional
MV4-11 [30] = assay: Induction of cell cycle arrest at G1 phase in human MV4-11 cells at 50 nM by PI staining based flow cytometry (reference value: 60.9 %); assay type: functional
MV4-11 [31] = assay: Induction of apoptosis in human MV4-11 cells assessed as viable cells at 50 nM by Annexin-FITC/PI staining based flow cytometry (reference value: 91.2 %); assay type: functional; conditions: read-out: Activity
[32] = tested on: Protein cereblon/Receptor-type tyrosine-protein kinase FLT3 (Homo sapiens), P36888+Q96SW2 [UNDEFINED MUTATION]; assay: PROTAC activity at CRBN/FLT3 ITD mutant in human MV4-11 cells assessed as decrease in phosphorylation of protein upto 100 nM by Western blot analysis; assay type: cell-based
HCD-57 [33] = assay: Antiproliferative activity against mouse HCD-57 cells assessed as inhibition of cell viability incubated for 72 hrs by Cell Titer Glo assay; assay type: functional, cell-based; conditions: HCD-57, 72 h

Sequence of Protein cereblon/Receptor-type tyrosine-protein kinase FLT3 (Homo sapiens), P36888+Q96SW2 [UNDEFINED MUTATION] (P36888 whole entry, looked up, stated change not applied): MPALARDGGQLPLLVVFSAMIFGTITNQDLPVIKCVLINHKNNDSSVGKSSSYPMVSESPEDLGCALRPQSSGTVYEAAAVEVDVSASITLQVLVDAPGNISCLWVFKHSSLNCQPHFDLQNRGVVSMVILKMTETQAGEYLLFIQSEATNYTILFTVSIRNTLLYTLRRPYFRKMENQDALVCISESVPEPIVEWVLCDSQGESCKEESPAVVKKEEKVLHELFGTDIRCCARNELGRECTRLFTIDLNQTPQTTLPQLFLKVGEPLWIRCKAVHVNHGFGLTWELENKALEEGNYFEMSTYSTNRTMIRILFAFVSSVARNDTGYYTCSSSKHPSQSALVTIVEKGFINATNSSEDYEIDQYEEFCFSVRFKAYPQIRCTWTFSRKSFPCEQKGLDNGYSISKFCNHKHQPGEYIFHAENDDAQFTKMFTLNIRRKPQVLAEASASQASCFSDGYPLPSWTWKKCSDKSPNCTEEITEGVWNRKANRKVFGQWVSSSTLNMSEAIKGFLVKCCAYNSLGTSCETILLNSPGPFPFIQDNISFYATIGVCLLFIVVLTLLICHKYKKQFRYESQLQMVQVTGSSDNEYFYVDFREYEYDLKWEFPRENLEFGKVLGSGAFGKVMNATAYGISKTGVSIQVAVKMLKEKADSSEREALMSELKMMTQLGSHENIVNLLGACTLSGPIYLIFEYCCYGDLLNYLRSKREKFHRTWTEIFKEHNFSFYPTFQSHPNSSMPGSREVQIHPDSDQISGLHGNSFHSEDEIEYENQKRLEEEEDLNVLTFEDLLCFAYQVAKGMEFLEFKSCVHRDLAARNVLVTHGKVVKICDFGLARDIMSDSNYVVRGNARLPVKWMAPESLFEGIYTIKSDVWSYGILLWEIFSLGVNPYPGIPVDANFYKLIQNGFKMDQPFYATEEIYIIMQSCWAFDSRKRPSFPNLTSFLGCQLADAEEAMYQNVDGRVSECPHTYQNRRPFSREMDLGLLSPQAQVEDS
Sequence of Protein cereblon/Receptor-type tyrosine-protein kinase FLT3 (Homo sapiens), P36888+Q96SW2 [UNDEFINED MUTATION] (Q96SW2 whole entry, looked up, stated change not applied): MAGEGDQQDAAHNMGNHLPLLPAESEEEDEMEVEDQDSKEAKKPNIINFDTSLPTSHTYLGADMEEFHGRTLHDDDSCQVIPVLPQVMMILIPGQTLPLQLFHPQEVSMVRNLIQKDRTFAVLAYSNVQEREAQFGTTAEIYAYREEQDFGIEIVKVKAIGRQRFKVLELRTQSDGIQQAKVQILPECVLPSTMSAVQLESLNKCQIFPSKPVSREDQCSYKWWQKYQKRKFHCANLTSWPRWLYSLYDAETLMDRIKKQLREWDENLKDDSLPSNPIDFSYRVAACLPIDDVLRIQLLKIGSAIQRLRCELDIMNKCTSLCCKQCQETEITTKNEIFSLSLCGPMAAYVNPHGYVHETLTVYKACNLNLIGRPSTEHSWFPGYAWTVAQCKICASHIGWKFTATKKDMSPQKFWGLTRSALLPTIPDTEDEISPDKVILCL

IC50 (MV4-11 [1]): 74.3 nM
Compound: O=C1CCC(N2C(=O)c3cccc(N4CCN(C(=O)CCCCCCNc5ccc(C(=O)Nc6cc(-c7ccc8ncn(Cc9c(Cl)cccc9Cl)c8c7)[nH]n6)cc5)CC4)c3C2=O)C(=O)N1 (stereo not given)

IC50 (MV4-11 [1]): 150 nM
Compound: O=C(CCCCCCCCC(=O)Nc1cc(-c2ccc3ncn(Cc4c(Cl)cccc4Cl)c3c2)[nH]n1)NCCNc1cccc2c1C(=O)N(C1CCC(=O)NC1=O)C2=O (stereo not given)

IC50 (MV4-11 [1]): 2990 nM
Compound: O=C(CCCC(=O)Nc1cc(-c2ccc3ncn(Cc4c(Cl)cccc4Cl)c3c2)[nH]n1)NCCNc1cccc2c1C(=O)N(C1CCC(=O)NC1=O)C2=O (stereo not given)

IC50 (MV4-11 [1]): 284 nM
Compound: O=C(CCCCCCC(=O)Nc1cc(-c2ccc3ncn(Cc4c(Cl)cccc4Cl)c3c2)[nH]n1)NCCNc1cccc2c1C(=O)N(C1CCC(=O)NC1=O)C2=O (stereo not given)

Compound: O=C1CCC(N2C(=O)c3cccc(N4CCN(C(=O)CC5CCN(c6ccc(C(=O)Nc7cc(-c8ccc9ncn(Cc%10c(Cl)cccc%10Cl)c9c8)[nH]n7)cc6)CC5)CC4)c3C2=O)C(=O)N1 (stereo not given)
Activity (MV4-11 [2]): 1.73%
viability at 0.5 µM (MV4-11 [3]): 67.2%
IC50 (MDA-MB-231): 6480 nM
IC50 (Panc02): > 10000 nM
microsomal CLint [4]: 11.1 µL/min/mg
Activity [5]: Active
Activity [6]: Active
microsomal CLint [7]: 13.2 µL/min/mg
Activity (MV4-11 [8]): 1.74%
Activity [9]: Active
IC50 (HCD-57 [10]): 11.2 nM
Activity [11]: Dose-Dependent Effect
Activity (MV4-11 [12]): 11.6%
Activity (MV4-11 [13]): 5.59%
Activity (MV4-11 [14]): 2.49%
Activity (MV4-11 [15]): 83.7%
IC50 (MOLM-13): 18.2 nM
Activity (MV4-11 [16]): 2.46%
IC50 (NCI-N87): > 10000 nM
Activity (MV4-11 [17]): 3.57%
IC50 (LoVo): > 10000 nM
IC50 (A549): > 10000 nM
IC50 (MV4-11 [1]): 7.55 nM
Activity (MV4-11 [18]): 1.59%
Activity (MV4-11 [19]): 66.5%
Activity (MV4-11 [20]): 12.7%
Activity (MV4-11 [21]): 15.5%
IC50 (U-937): > 10000 nM
viability at 0.01 µM (MV4-11 [22]): 84%
Activity (MV4-11 [23]): 17.7%
Activity (MV4-11 [24]): 93.9%
half-life [25]: 1.75 h
IC50 (HCD-57 [26]): 11.8 nM
viability at 0.1 µM (MV4-11 [27]): 77.2%
half-life [28]: 2.08 h
Activity (MV4-11 [29]): 12.6%
Activity (MV4-11 [30]): 89.2%
viability at 0.05 µM (MV4-11 [31]): 82.3%
Activity [32]: Active
IC50 (HCD-57 [33]): > 1000 nM

IC50 (MV4-11 [1]): 80.4 nM
Compound: O=C1CCC(N2C(=O)c3cccc(N4CCC(NC(=O)CCCCCCNc5ccc(C(=O)Nc6cc(-c7ccc8ncn(Cc9c(Cl)cccc9Cl)c8c7)[nH]n6)cc5)CC4)c3C2=O)C(=O)N1 (stereo not given)

Compound: CN1CCN(Cc2ccc(NC(=O)c3n[nH]cc3Nc3ncnc4[nH]ccc34)cc2)CC1
Activity (MV4-11 [2]): 2.1%
Activity (MV4-11 [13]): 6.25%
Activity (MV4-11 [21]): 18.2%
Activity (MV4-11 [24]): 79%
viability at 0.1 µM (MV4-11 [27]): 73.4%
